Assays:
[1] = system: mutant hygromycin resistance gene in Mata+IntHYG(rep)eGFP; test: Yeast cell targeting assay: oligonucleotide-directed alteration of the integrated hygromycin-eGFP target; assay type: cell-based; conditions: for Alteration per 10^5 Aureobasidin^R colonies: average of four experiments with standard deviation
human β-globin gene [2] = test: Dual oligonucleotide experiment: screen of hygromycin-resistant colonies for alteration of the β-globin target in the βS YAC (PCR, SNaPshot); conditions: in hygromycin-selected population; with or without Rad51 overexpression
human β-globin gene [3] = test: Dual targeting protocol: second-site editing of the YAC β-globin gene in hygromycin-resistant colonies (SNaPshot, sequencing); conditions: RAD51 overexpression; HU and TSA
[4] = system: mutated Hyg(rep)eGFP target in Mata-intHyg(rep)eGFP/βYAC; test: Dual oligonucleotide experiment: conversion efficiency for the hygromycin target (Example 2); assay type: cell-based, yeast
[5] = system: chromosomal hygromycin mutant gene in LSY678IntHyg(rep)β cells; test: Dual targeting protocol: correction efficiency (C.E.) of the chromosomal hygromycin mutation (Example 4); assay type: cell-based, yeast; conditions: LSY678IntHyg(rep)β + RAD51 expression plasmid; HU and TSA; compared with FIG. 3

Substance | Fold correction (relative to Hyg3S/74T) [1] [x] | Alteration per 10^5 Aureobasidin^R colonies [1] | alteration efficiency of the β-globin gene relative to alteration of the hygromycin target (human β-globin gene [2]) | also measured
5′-C*T*C* GTGCTTTCAGCTTCGATGTAGGAGGGCGTGGATACGTCCTGCGGGTAAATAGCTGCGCCGATGGTTTC *T*A*C-3′ [Hyg3S/74T] | 1 | 0.22 ± 0.3 per 10^5 Aureobasidin^R colonies |  | 
5′-T*A*A* CGGCAGACTTCTCCACAGGAGTCAGGTGCACCGTGGTGTCTGTTTGAGGTTGCTAGTGAACACAG*T *T*G-3′ [βS-378m] |  |  | approximately 10 fold | cells bearing the corrected hygromycin that also contain the edited β-globin gene (human β-globin gene [3]): approximately 10%
5′-G*C*C* TCACCACCAACTTCATCCACGTTCACCTTGCCTCACAGGGCAGTAACGGCAGACTTCTCCACAGG*A *G*T-3′ [βS-386m] |  |  | approximately 10 fold | 
5′-G*T*A* GAAACCATCGGCGCAGCTATTTACCCGCAGGACGTATCCACGCCCTCCTACATCGAAGCTGAAAGCAC*G *A*G-3′ [Hyg3S/74NT] | 4.0 | 0.89 ± 1.3 per 10^5 Aureobasidin^R colonies |  | Hygromycin Alteration Efficiency (/10^5) ([4]; βS-378m Experiment, Mata-intHyg(rep)eGFP/βYAC (HU + TSA)): 12.79 /10^5; Hygromycin Alteration Efficiency (/10^5) ([4]; βS-378m Experiment, Mata-intHyg(rep)eGFP/βYAC + pYNARad51 (HU + TSA)): 96.96 /10^5; Hygromycin Alteration Efficiency (/10^5) ([4]; βS-386m Experiment, Mata-intHyg(rep)eGFP/βYAC (HU + TSA)): 12.35 /10^5; Hygromycin Alteration Efficiency (/10^5) ([4]; βS-386m Experiment, Mata-intHyg(rep)eGFP/βYAC, no HU or TSA): 3.22 /10^5; effect of RAD51 expression on hygromycin correction efficiency [5]: increases

Source: patent US20040175722A1, “Methods and compositions for reducing screening in oligonucleotide-directed nucleic acid sequence alteration” (priority 2002, published 2004)
